How the values were obtained:
[1] = test system: MBL2 mRNA; experiment: Complement mRNA expression in primary human hepatocytes; format: cell-based; conditions: 0.3 uM, maximum at 24 h, single donor
Experimental: (§1) Huh-7 and HepG2 cells are liver-derived cell lines and are models for what can occur in the liver. Huh-7 cells (JCRB Cell Bank) were introduced to 96-well plates (^˜2.5×10^5 per well) in 100 μL DMEM containing 10% (v/v) FBS, 100 U/mL penicillin, 100 ug/mL streptomycin and 5 ug/mL plasmocin (all reagents from Gibco, except for the former, which was obtained from Invivogen). After 24 h, Huh-7 cells were treated with compounds in the same media formulation used for plating, and supplemented with 0.1% DMSO for the amount of time indicated in tables 2, 3, and 4. For select experiments, 24 h post-plating, cells were treated with cytokines and the compound of interest simultaneously, for a total treatment time of 48 h. Alternatively, 24 h after plating, cells were pre-treated with cytokines for 24 h before adding the compound of interest for 48 h. HepG2 cells (ATCC) were cultured in 96-well plates (^˜2.5×10^5 per well) in MEM containing 10% FBS, 1× non-essential amino acids, 1 mM sodium pyruvate, 2 mM L-glutamine, 100 U/mL penicillin, 100 ug/mL streptomycin and 5 ug/mL plasmocin. Serum amount was reduced to 0.5% for treatments with compound or cytokines. Timing of treatment of HepG2 cells with compounds and cytokines was as described for Huh-7 cells. Primary human hepatocytes (CellzDirect/Life Technologies) were plated in collagen coated 96-well plates at 70 000 cells/well, then overlaid with Matrigel™ as recommended by the supplier. Cells were treated with compounds of interest and/or cytokines for the indicated time points in the recommended media supplemented with 0.1% DMSO and 10% FBS (v/v). Cells were harvested by mRNA Catcher PLUS Kit (Life Technologies) followed by real-time PCR using the RNA UltraSense One-Step qRT-PCR System. The level of the mRNA of interest was measured by TaqMan real-time PCR relative to the endogenous control cyclophilin A in the same sample.

[2] = test system: complement C1S mRNA; experiment: as above; format: cell-based; conditions: 0.3 uM, maximum at 72 h, single donor
Experimental: as §1

[3] = test system: complement C2 mRNA; experiment: as above; format: cell-based; conditions: 0.3 uM, maximum at 72 h, single donor
Experimental: as §1

[4] = test system: complement C5 mRNA; experiment: as above; format: cell-based; conditions: 0.3 uM, maximum at 24 h, single donor
Experimental: as §1

[5] = test system: Complement C3 (C3); experiment: Multi-analyte profiling of plasma, ASSURE trial; format: in vivo, human; conditions: week 26 vs. baseline, N 20
Experimental: (§2) In this example, plasma samples from human subjects treated with placebo or RVX000222 was analyzed by Multi-Analyte Profiling (MAP) technology. The method can be used to determine the effect of compounds, including those in the present invention, on the levels of various analytes in plasma (Table 8).

[6] = test system: Complement Factor H (CFH); experiment: Multi-analyte profiling of plasma, ASSURE trial; format: in vivo, human; conditions: week 26 vs. baseline, N 20
Experimental: as §2

[7] = test system: Complement Factor H - Related Protein 1 (CFHR1); experiment: Multi-analyte profiling of plasma, ASSURE trial; format: in vivo, human; conditions: week 26 vs. baseline, N 17
Experimental: as §2

[8] = test system: alternative complement pathway activity; experiment: Complement alternative pathway (AH50) assay on clinical serum samples; format: in vivo, human; conditions: ASSURE trial, 26 weeks vs baseline
Experimental: The method can be used to determine the effect of compounds, including those in the present invention, on the activity of the classical and alternative complement system in clinical samples. […] Using the CH50 screening assay to detect the hemolysis of sheep erythrocytes sensitized by specific antibodies, the hemolytic activity of the complement system in serum samples from treated and untreated subjects was measured. Likewise, using specific conditions to activate only the alternative pathway (AH50), activity of the complement response was measured. The degree of complement activation was measured at baseline and terminally to determine if there were any changes in the function of the complement system following drug treatment (FIG. 7). Reduced function of the complement system constitutes a positive result.

[9] = test system: C-reactive protein; experiment: SOMAscan protein quantitation in clinical samples, ASSURE trial; format: in vivo, human; conditions: 200 mg/day, week 26 vs. baseline
Experimental: (§3) In this example, plasma samples from human subjects treated with placebo or RVX000222 are analyzed by the SOMAscan™ assay (SomaLogic). The method can be used to determine the effect of compounds, including those in the present invention, on the abundance of proteins, including complement components, in clinical samples. […] Using the SOMAscan™ technology, each sample is analyzed for the relative presence and amount of 1,310 different proteins. The changes in values for each protein analyte are calculated versus the baseline measure, and statistically significant (p<0.05) values are reported (Table 10). Downregulation of expression of components of the complement cascade will result in reduced activity of the pathway and thus will constitute a positive result.

[10] = test system: C5a anaphylatoxin; experiment: as above; format: in vivo, human; conditions: 200 mg/day, week 26 vs. baseline
Experimental: as §3

[11] = test system: Complement C1s subcomponent; experiment: as above; format: in vivo, human; conditions: 200 mg/day, week 26 vs. baseline
Experimental: as §3

[12] = test system: Complement C2; experiment: as above; format: in vivo, human; conditions: 200 mg/day, week 26 vs. baseline
Experimental: as §3

[13] = test system: Complement C3b; experiment: as above; format: in vivo, human; conditions: 200 mg/day, week 26 vs. baseline
Experimental: as §3

[14] = test system: Complement C5b-C6 complex; experiment: as above; format: in vivo, human; conditions: 200 mg/day, week 26 vs. baseline
Experimental: as §3

[15] = test system: Complement C5; experiment: as above; format: in vivo, human; conditions: 200 mg/day, week 26 vs. baseline
Experimental: as §3

[16] = test system: Complement component C6; experiment: as above; format: in vivo, human; conditions: 200 mg/day, week 26 vs. baseline
Experimental: as §3

[17] = test system: Complement component C8; experiment: as above; format: in vivo, human; conditions: 200 mg/day, week 26 vs. baseline
Experimental: as §3

[18] = test system: Complement component C9; experiment: as above; format: in vivo, human; conditions: 200 mg/day, week 26 vs. baseline
Experimental: as §3

[19] = test system: Complement decay-accelerating factor; experiment: as above; format: in vivo, human; conditions: 200 mg/day, week 26 vs. baseline
Experimental: as §3

[20] = test system: Complement factor B; experiment: as above; format: in vivo, human; conditions: 200 mg/day, week 26 vs. baseline
Experimental: as §3

[21] = test system: Complement factor H; experiment: as above; format: in vivo, human; conditions: 200 mg/day, week 26 vs. baseline
Experimental: as §3

[22] = test system: Complement factor I; experiment: as above; format: in vivo, human; conditions: 200 mg/day, week 26 vs. baseline
Experimental: as §3

[23] = test system: Mannan-binding lectin serine protease 1; experiment: as above; format: in vivo, human; conditions: 200 mg/day, week 26 vs. baseline
Experimental: as §3

[24] = test system: Mannose-binding protein C; experiment: as above; format: in vivo, human; conditions: 200 mg/day, week 26 vs. baseline
Experimental: as §3

Cc1sc2c(c1C)C(c1ccc(Cl)cc1)=N[C@@H](CC(=O)OC(C)(C)C)c1nnc(C)n1-2 [JQ1, (S)-tert-butyl 2-(4-(4-chlorophenyl)-2,3,9-trimethyl-6H-thieno[3,2-f][1,2,4]triazolo[4,3-a][1,4]diazepin-6-yl)acetate, reference compound]
MBL2 percent maximal reduction in gene expression [1]: 93% (24 h)
C1S percent maximal reduction in gene expression [2]: 22% (72 h)
C2 percent maximal reduction in gene expression [3]: 29% (72 h)
C5 percent maximal reduction in gene expression [4]: 67% (24 h)

COc1cc(OC)c2c(=O)[nH]c(-c3cc(C)c(OCCO)c(C)c3)nc2c1 [RVX000222, 2-(4-(2-hydroxyethoxy)-3,5-dimethylphenyl)-5,7-dimethoxyquinazolin-4(3H)-one]
Complement C3 (C3) Change from baseline [5]: -0.1 mg/mL
Complement C3 (C3) Percent Change from baseline [5]: −9.28%
Complement Factor H (CFH) Change from baseline [6]: -75.35 µg/mL
Complement Factor H (CFH) Percent Change from baseline [6]: −11.45%
Complement Factor H - Related Protein 1 (CFHR1) Change from baseline [7]: -291.76 µg/mL
Complement Factor H - Related Protein 1 (CFHR1) Percent Change from baseline [7]: −10.75%
complement activity in clinical samples, AHSO assay (FIG. 7A) [8]: reduces complement activity
C-reactive protein (CRP) % change vs. baseline [9]: −43.6%
C5a anaphylatoxin (C5) % change vs. baseline [10]: −28.7%
Complement C1s subcomponent (C1S) % change vs. baseline [11]: −6.1%
Complement C2 (C2) % change vs. baseline [12]: −6.7%
Complement C3b (C3) % change vs. baseline [13]: −52.7%
Complement C5b-C6 complex (C5 C6) % change vs. baseline [14]: −12.0%
Complement C5 (C5) % change vs. baseline [15]: −11.7%
Complement component C6 (C6) % change vs. baseline [16]: −14.3%
Complement component C8 (C8) % change vs. baseline [17]: −10.1%
Complement component C9 (C9) % change vs. baseline [18]: −18.3%
Complement decay-accelerating factor (CD55) % change vs. baseline [19]: −4.0%
Complement factor B (CFB) % change vs. baseline [20]: −6.8%
Complement factor H (CFH) % change vs. baseline [21]: −5.6%
Complement factor I (CFI) % change vs. baseline [22]: −6.4%
Mannan-binding lectin serine protease 1 (MASP1) % change vs. baseline [23]: 4.8%
Mannose-binding protein C (MBL2) % change vs. baseline [24]: −14.6%
